Here are results for 23 molecules from patent publication US12581252B2, “Substituted pyrrolo[3,4-b]pyridines as PI3K-α inhibitors” (Relay Therapeutics, Inc., priority 2020, dated 2026).

Where only a bound is given, the exact number is not on record here.

The target in this experiment is H1047R PIK3CA enzyme (Homo sapiens, UniProt P42336, H1047R). In words: ADP-Glo Biochemical PIK3CA Kinase Assay. A general note: ADP-Glo first removes unused ATP, then detects ADP through luciferase.
Sequence of H1047R PIK3CA enzyme (P42336 whole entry H1047R): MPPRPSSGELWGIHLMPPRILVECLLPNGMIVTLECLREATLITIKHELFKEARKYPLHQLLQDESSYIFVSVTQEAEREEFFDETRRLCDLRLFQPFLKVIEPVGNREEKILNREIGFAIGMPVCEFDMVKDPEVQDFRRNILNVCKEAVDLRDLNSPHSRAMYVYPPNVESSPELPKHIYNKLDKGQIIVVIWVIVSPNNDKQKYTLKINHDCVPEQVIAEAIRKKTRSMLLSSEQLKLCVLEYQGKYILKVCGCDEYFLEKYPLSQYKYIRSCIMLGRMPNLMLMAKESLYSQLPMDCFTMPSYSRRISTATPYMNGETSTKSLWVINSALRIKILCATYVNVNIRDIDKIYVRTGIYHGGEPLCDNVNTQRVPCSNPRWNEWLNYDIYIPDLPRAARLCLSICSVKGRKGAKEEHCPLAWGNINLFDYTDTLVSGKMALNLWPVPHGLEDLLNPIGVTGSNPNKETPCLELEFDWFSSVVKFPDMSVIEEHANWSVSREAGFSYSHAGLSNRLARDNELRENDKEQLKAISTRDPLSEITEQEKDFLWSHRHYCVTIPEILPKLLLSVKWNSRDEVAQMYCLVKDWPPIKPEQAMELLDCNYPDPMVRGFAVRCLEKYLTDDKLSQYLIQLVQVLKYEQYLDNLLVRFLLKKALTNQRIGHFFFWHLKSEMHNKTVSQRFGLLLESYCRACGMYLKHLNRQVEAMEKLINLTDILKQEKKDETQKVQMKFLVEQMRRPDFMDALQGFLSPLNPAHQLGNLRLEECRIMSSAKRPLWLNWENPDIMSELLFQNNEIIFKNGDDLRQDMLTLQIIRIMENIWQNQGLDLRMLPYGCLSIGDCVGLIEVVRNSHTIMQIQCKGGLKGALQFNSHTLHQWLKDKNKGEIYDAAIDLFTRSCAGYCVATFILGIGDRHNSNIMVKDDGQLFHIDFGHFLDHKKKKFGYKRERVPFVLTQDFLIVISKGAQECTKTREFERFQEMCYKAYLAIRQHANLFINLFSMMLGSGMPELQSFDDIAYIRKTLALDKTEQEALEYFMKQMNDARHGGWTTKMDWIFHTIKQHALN
Sequence of H1047R PIK3CA enzyme (P27986 whole entry partner): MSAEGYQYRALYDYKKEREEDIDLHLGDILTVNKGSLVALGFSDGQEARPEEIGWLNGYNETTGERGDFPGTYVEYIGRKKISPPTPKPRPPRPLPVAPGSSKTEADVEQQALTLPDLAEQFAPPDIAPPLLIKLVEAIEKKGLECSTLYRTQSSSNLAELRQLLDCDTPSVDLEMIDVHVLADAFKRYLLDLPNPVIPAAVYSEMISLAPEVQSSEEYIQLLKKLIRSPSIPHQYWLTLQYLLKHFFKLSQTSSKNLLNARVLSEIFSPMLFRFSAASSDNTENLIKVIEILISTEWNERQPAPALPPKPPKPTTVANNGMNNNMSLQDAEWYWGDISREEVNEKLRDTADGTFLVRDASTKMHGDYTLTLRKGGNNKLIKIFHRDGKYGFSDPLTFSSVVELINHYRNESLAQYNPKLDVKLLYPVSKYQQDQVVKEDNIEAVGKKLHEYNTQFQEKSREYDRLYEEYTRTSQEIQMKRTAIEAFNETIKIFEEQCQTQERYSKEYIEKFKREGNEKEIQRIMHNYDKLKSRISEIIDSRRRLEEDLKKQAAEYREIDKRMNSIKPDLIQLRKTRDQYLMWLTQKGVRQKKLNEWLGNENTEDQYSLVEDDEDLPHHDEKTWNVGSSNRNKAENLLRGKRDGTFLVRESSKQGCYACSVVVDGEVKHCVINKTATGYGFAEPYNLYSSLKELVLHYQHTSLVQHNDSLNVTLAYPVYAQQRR
A word on the IC50: it is the concentration needed to halve the response being measured. With `CS(=O)(=O)c1ccc(-c2cc(NC(=O)c3cc(F)cc(C(F)(F)F)c3)c3c(c2)C(=O)NC3c2cc(F)ccc2Cl)nc1` (centres unmarked) [Compound I-1456], the IC50 is at most 100 nM. `O=C(Nc1cc(-c2ccc3ncnn3n2)cc2c1C(c1cc(F)ccc1Cl)NC2=O)c1cc(F)cc(C(F)(F)F)c1` (centres unmarked) [Compound I-1458] gave an IC50 of at most 100 nM. Molecule `CC(c1ccccc1O)N(C)C(=O)Nc1cc(Br)cc2c1C(c1cc(F)ccc1Cl)NC2=O` (centres unmarked) [Compound I-1459] displayed an IC50 of 10000 to 100000 nM. Turning to `O=C1NC(c2cc(F)ccc2Cl)c2c(Nc3nccc4cc[nH]c34)cc(Br)cc21` (centres unmarked) [Compound I-1460], the IC50 is 10000 to 100000 nM. Consider `O=C1NC(c2cc(F)ccc2Cl)c2c(Nc3nccc4ccsc34)cc(Br)cc21` (centres unmarked) [Compound I-1461], for which the IC50 lay within 10000 to 100000 nM. On to `O=C1NC(c2cc(F)ccc2Cl)c2c(NC(=O)N3CC4(CC4)c4ccccc43)cc(Br)cc21` (centres unmarked) [Compound I-1462], for which the IC50 was in the range of 100 to 500 nM.

In turn, `O=C(Nc1cc(CC(O)CCO)cc2c1C(c1cc(F)ccc1Cl)NC2=O)c1cc(F)cc(C(F)(F)F)c1` (centres unmarked) [Compound I-1463] showed an IC50 of at most 100 nM. As for `O=C(Nc1cc(-c2cnc(-c3ncco3)nc2)cc2c1C(c1cc(F)ccc1Cl)NC2=O)c1cc(F)cc(C(F)(F)F)c1` (centres unmarked) [Compound I-1464], the IC50 was at most 100 nM. In turn, `O=C(Nc1cc(-c2cnn(-c3ccncn3)c2)cc2c1C(c1cc(F)ccc1Cl)NC2=O)c1cc(F)cc(C(F)(F)F)c1` (centres unmarked) [Compound I-1465] yielded an IC50 of at most 100 nM. The same measure for `NS(=O)(=O)CCNC(=O)c1cc(NC(=O)c2cc(F)cc(C(F)(F)F)c2)c2c(c1)C(=O)NC2c1cc(F)ccc1Cl` (centres unmarked) [Compound I-1469]: at most 100 nM; for `O=C(Nc1cc(CS(=O)(=O)Cc2ccncc2)cc2c1C(c1cc(F)ccc1Cl)NC2=O)c1cc(F)cc(C(F)(F)F)c1` (centres unmarked) [Compound I-1470]: at most 100 nM; for `O=C(Nc1cc(CS(=O)(=O)Cc2cc[n+]([O-])cc2)cc2c1C(c1cc(F)ccc1Cl)NC2=O)c1cc(F)cc(C(F)(F)F)c1` (centres unmarked) [Compound I-1471]: at most 100 nM.

For `O=C(Nc1cc(-c2cnc(OCCO)nc2)cc2c1C(c1cc(F)ccc1Cl)NC2=O)c1cc(F)cc(C(F)(F)F)c1` (centres unmarked) [Compound I-1474], the IC50 is at most 100 nM.

Molecule `O=C(Nc1cc(Cc2ccc3c(c2)CCNC3=O)cc2c1C(c1cc(F)ccc1Cl)NC2=O)c1cc(F)cc(C(F)(F)F)c1` (centres unmarked) [Compound I-1475] came in with an IC50 of at most 100 nM.

Regarding `CS(=O)(=O)CCc1cc(NC(=O)c2cc(F)cc(C(F)(F)F)c2)c2c(c1)C(=O)NC2c1cc(F)ccc1Cl` (centres unmarked) [Compound I-1476], the IC50 was at most 100 nM. The figure for `O=C(Nc1cc(NC(=O)c2cc(F)cc(C(F)(F)F)c2)c2c(c1)C(=O)N[C@H]2c1cc(F)ccc1Cl)c1cccnc1` [Compound I-1477] is at most 100 nM; for `NS(=O)(=O)Cc1cc(NC(=O)c2cc(F)cc(C(F)(F)F)c2)c2c(c1)C(=O)N[C@@H]2c1cc(F)ccc1Cl` [Compound I-1479] it is 1000 to 10000 nM. `NS(=O)(=O)Cc1cc(NC(=O)c2cc(F)cc(C(F)(F)F)c2)c2c(c1)C(=O)N[C@H]2c1cc(F)ccc1Cl` [Compound I-1480] gave an IC50 of at most 100 nM. The figure for `NC(=O)Cn1cc(-c2cc(NC(=O)c3cc(F)cc(C(F)(F)F)c3)c3c(c2)C(=O)NC3c2cc(F)ccc2Cl)cn1` (centres unmarked) [Compound I-1481] is at most 100 nM; for `O=C(Nc1cc(-c2cnc(-n3ccnc3)nc2)cc2c1C(c1cc(F)ccc1Cl)NC2=O)c1cc(F)cc(C(F)(F)F)c1` (centres unmarked) [Compound I-1482] it is at most 100 nM. In turn, `O=C(Nc1cc(-c2cnc(-n3cccn3)nc2)cc2c1C(c1cc(F)ccc1Cl)NC2=O)c1cc(F)cc(C(F)(F)F)c1` (centres unmarked) [Compound I-1483] displayed an IC50 of at most 100 nM. Consider `O=C(Nc1cc(CS(=O)(=O)N2CCOCC2)cc2c1[C@@H](c1cc(F)ccc1Cl)NC2=O)c1cc(F)cc(C(F)(F)F)c1` [Compound I-1484], for which the IC50 fell in the range of 1000 to 10000 nM. In the case of `O=C(Nc1cc(CS(=O)(=O)N2CCOCC2)cc2c1[C@H](c1cc(F)ccc1Cl)NC2=O)c1cc(F)cc(C(F)(F)F)c1` [Compound I-1485], the IC50 was at most 100 nM.
